Where “and” joins values, the source holds several entries; their conditions need not be identical. Equal entries are not always repeated.
Assays:
[1] = test system: incident CPDs (iCPDs) in NBHF cells; experiment: iCPD assessment by DNA ELISA after ssUV, NBHF; assay type: cell-based, human
Description: (§1) For UV exposures, we used a “SOL-UV6 ultraviolet solar simulator” from Newport irradiators. It is equipped with a Xenon arc lamp where the output is varied using the integrated variable attenuator aperture, which provides the ability to vary the output from 10% to 100% of the maximum available solar constants. The output spectrum is flat from 320 nm to 400 nm and no values are below 300 nm. This is abbreviated as “ssUV” for “solar-simulated UV” throughout the text. Various cell types seeded at ~50% confluency, were treated with the AZ and analogs at concentrations mentioned in the data figures for 24–h. Cells at ~80–90% confluency (untreated controls), were washed twice with PBS and exposed to 18 kJ/m^2 of ssUV in minimal amount of PBS (ex. 2 mL PBS in a 60 mm cell culture dish) without any dish lid in place. […] The ssUV apparatus was monitored almost daily using UV meters for any emissions below 300 nm. The dose was decided based upon the 80–90% cell survival post UV exposure. After exposure, one time point was collected immediately to assess iCPDs, whereas more dishes were incubated in cell culture medium, inside the cell culture incubator, for various time points to be collected post UV to assess dCPDs. For dCPD induction, it is important that the cell culture incubator is not opened for at least 30 min (the first time point post UV) to avoid possible interference from the CO2/O2 ratio, which will be altered upon opening the incubator doors. Cells were collected by scraping and washed once with PBS, which was followed by DNA isolation using a Quick DNA miniprep Kit (Cat. D3024, Zymo Research, Irvine, CA, USA). CPDs were assessed using our previously established DNA ELISA protocols. In brief, ELISA was performed using mouse monoclonal Anti-CPD (Cat. CAC-NM-DND-001, Clone TDM-2, CosmoBio, Inc., Carlsbad, CA, USA). Flat-bottom, 96-well plates (Cat. 2801, Thermo Scientific, Waltham, MA, USA) were coated overnight with 50 µL of protamine sulphate (0.005–0.05%, Cat. P3369, Sigma, St. Lois, MO, USA) in distilled water. After washing twice with water, heat-denatured DNA was plated in triplicates from each sample, into the protamine sulphate coated plate wells (50–100 ng/well in 50 µL PBS) and incubated overnight at 37 °C. The plates were washed 5 times with 200 µL of PBST (PBS containing 0.05% Tween-20 Cat. P7949, Sigma), and blocked with 2–4% FBS in PBST (blocking buffer) for 1 h at room temperature (RT). The plates were incubated with 100 µL of a 1:1000 dilution of anti-CPD antibody in blocking buffer, and incubated for 30 min at 37 °C, which was followed by 5 washes in PBST. Next, the plates were incubated with 100 µL of a 1:2000 dilution of Biotin-F(ab’)2 fragment of anti-mouse IgG(H+L) (Cat. B-2763, Life Technologies) in blocking buffer for 30 min at 37 °C. Detection was conducted using 100 µL of a 1:10,000 dilution of Streptavidin HRP (Cat. 434323, Life Technologies) in 2% FBS for 30 min at 37 °C, which was followed by 5 washes. The plates were washed once with citrate phosphate buffer (24.3 mM citric acid monohydrate, J.T. Baker Cat. 0110-01- and 51.4-mM sodium phosphate dibasic, Sigma Cat. S7907, pH 5.0). The o-phenylene diamine dihydrochloride (Cat. P8287-50TAB, Sigma) was used as a HRP substrate at 400 µg/mL in citrate phosphate buffer for 5–10 min. A measure of 50 µL of 2M H2SO4 was used to stop the reaction as soon as the color developed (5–10 min incubation in substrate), and OD was measured at 490 nm using a Synergy-2 multimode microplate reader (BioTek, Winooski, VT, USA).

[2] = test system: Xpa, Xpc, Mitf, Xrcc1 expression in Mel-a; experiment: qPCR expression of NER pathway genes, Mel-a; assay type: cell-based, mouse
Procedure: (§2) Various cell types were collected 24-h post incubation with 200 µg/mL AZ and MBPD, with and without ssUV exposure. RNA was isolated using a Quick-RNA isolation kit (Cat. R1050, Zymo Research). The cDNA was prepared using a High-Capacity cDNA Reverse Transcription Kit (Cat. 4368814, ThermoFisher Scientific). The gene expression of XPA, XPC, and MITF genes was assessed using the following primers. β-actin was used as an internal control for normalizations and data analyses. F1-R1 and F2-R2 represents two primer pairs which were used in the qPCR experiments.

[3] = test system: incident CPDs (iCPDs) in HaCaT cells; experiment: iCPD assessment by DNA ELISA after ssUV, HaCaT; assay type: cell-based, human; details: various doses, Supplementary Figure S2A
Description: (§3) For UV exposures, we used a “SOL-UV6 ultraviolet solar simulator” from Newport irradiators. It is equipped with a Xenon arc lamp where the output is varied using the integrated variable attenuator aperture, which provides the ability to vary the output from 10% to 100% of the maximum available solar constants. The output spectrum is flat from 320 nm to 400 nm and no values are below 300 nm. This is abbreviated as “ssUV” for “solar-simulated UV” throughout the text. Various cell types seeded at ~50% confluency, were treated with the AZ and analogs at concentrations mentioned in the data figures for 24–h. Cells at ~80–90% confluency (untreated controls), were washed twice with PBS and exposed to 18 kJ/m^2 of ssUV in minimal amount of PBS (ex. 2 mL PBS in a 60 mm cell culture dish) without any dish lid in place. […] The ssUV apparatus was monitored almost daily using UV meters for any emissions below 300 nm. The dose was decided based upon the 80–90% cell survival post UV exposure. After exposure, one time point was collected immediately to assess iCPDs, whereas more dishes were incubated in cell culture medium, inside the cell culture incubator, for various time points to be collected post UV to assess dCPDs. For dCPD induction, it is important that the cell culture incubator is not opened for at least 30 min (the first time point post UV) to avoid possible interference from the CO2/O2 ratio, which will be altered upon opening the incubator doors. Cells were collected by scraping and washed once with PBS, which was followed by DNA isolation using a Quick DNA miniprep Kit (Cat. D3024, Zymo Research, Irvine, CA, USA). CPDs were assessed using our previously established DNA ELISA protocols. In brief, ELISA was performed using mouse monoclonal Anti-CPD (Cat. CAC-NM-DND-001, Clone TDM-2, CosmoBio, Inc., Carlsbad, CA, USA). […] A measure of 50 µL of 2M H2SO4 was used to stop the reaction as soon as the color developed (5–10 min incubation in substrate), and OD was measured at 490 nm using a Synergy-2 multimode microplate reader (BioTek, Winooski, VT, USA).

[4] = test system: nitrotyrosine / nitric oxide synthase (NOS) activity in Mel-a melanocytes; experiment: Immunofluorescence for nitrotyrosine (marker of NOS activity); assay type: cell-based, mouse; details: 50 µg/mL, 24–36 h
Procedure: Posttranslational modification nitrotyrosine was used as a marker of nitric oxide synthase (NOS) activity. Melanocytes were cultured on collagen-coated, glass-bottom dishes (cat. P35G-1.5-14-C, MatTek, Ashland, MA, USA). After various treatments, cells were fixed with 4% formaldehyde for 10 min at RT, washed with PBS, and permeabilized with 0.5% Triton-X in PBS for 10 min. After blocking for non-specific antibody binding using 5% goat serum (Cat. 16210064, ThermoFisher Scientific) and 1% globulin free BSA (Cat. 001-000-161, Jackson ImmunoResearch, West Grove, PA, USA) in 0.1% Triton-x in PBS (blocking buffer) for 2 h at room temperature, cells were incubated with 1:1000 dilution of anti-nitrotyrosine antibody (Cat. A-21285, ThermoFisher Scientific) overnight at 4 °C. Detection was conducted using Alexa Fluor 488 Goat Anti-rabbit IgG (Cat. A-11008, Life Technologies). Imaging was performed using a ZEISS Axio Observer microscope. Approximately 5–10 images per condition, with ~70–100 cells per image, were quantitated for nitrotyrosine fluorescence using ImageJ software.

melanin in Mel-a cells = experiment: Melanin amount in melanocytes cultured in varied tyrosine; assay type: cell-based; details: 50 µg/mL
Procedure: The amino acid tyrosine is essential for melanin synthesis, and it is added to the OptiMem medium at a proprietary concentration by ThermoFisher. Assuming this concentration to be “100% tyrosine”, we purchased the “custom-prepared, tyrosine-free” medium from ThermoFisher. This medium lacked tyrosine or its precursors, which include L-tyrosine, L-tyrosine-2Na-2H2O, L-tyrosine-Di-sodium salt, Hypoxanthine, and Sodium Hypoxanthine. Mel-a (pigmented mouse melanocyte) cells were cultured in regular cell culture medium containing 100% tyrosine, and in medium containing 20%, 4%, or 0% of the total tyrosine amount. This was achieved by diluting the regular OptiMem with the one containing no tyrosine (tyrosine-free, 0% tyrosine). […] Since the cells cultured in 0%-tyrosine medium lost their pigment over time (Figure 5) and the cell pellets were almost white or opaque in color, we assumed that the minimal amount of tyrosine from the horse serum used in the cell culture medium was not sufficient for melanin synthesis. To estimate the amount of melanin, 3 × 10^6–5 × 10^6 cells were lysed in 1M sodium hydroxide (NaOH) by heating them at 100 °C for 1–2 h, which was followed by a 10-min spin at 14,000 rpm at room temperature to remove any cell debris. Absorbance of the supernatant was recorded using the supernatant in a 96-well plate in triplicates from each sample, at 460–490 nm. Synthetic melanin (Cat. M0418, Sigma) was dissolved in methanol and used as a positive control to generate standard curves to estimate the melanin amount in cell lysates. The number of cells in each pellet was used as a normalization factor for each experimental condition. In a complementary experiment, cells were first bleached out of melanin completely by culturing them in tyrosine-free medium, followed by 100/20/4/0% tyrosine (not shown) treatment. This seemed to be cytotoxic, comparatively more so in 100% tyrosine, probably owing to the toxicity of the sudden rush of melanin derivatives and the oxidative stress generated during melanin synthesis.

[5] = test system: delayed (dark) CPDs (dCPDs) in Mel-a cells; experiment: dCPD assessment by DNA ELISA post ssUV, Mel-a; assay type: cell-based, mouse
Description: as §3

[6] = test system: incident CPDs (iCPDs) in pigmented C57BL/6 melanocytes (Mel-a); experiment: iCPD assessment by DNA ELISA after ssUV, Mel-a; assay type: cell-based, mouse; details: for iCPD inhibition across doses: various doses up to 1 mg/mL, 24 h, Figure 4A
Description: as §1

[7] = test system: incident CPDs (iCPDs) in albino C57BL/6 melanocytes (Mel-c); experiment: iCPD assessment by DNA ELISA after ssUV, Mel-c; assay type: cell-based, mouse; details: various doses up to 1 mg/mL, 24 h, Figure 4B
Description: as §3

[8] = test system: Xpa, Xpc, Mitf, Xrcc1 expression in Mel-c; experiment: qPCR expression of NER pathway genes, Mel-c; assay type: cell-based, mouse; details: 24 h incubation
Procedure: as §2

COc1ccc(CC(C(C)=O)C(C)=O)cc1 [MBPD, 3-(4-Methoxy-benzyl)-pentane-2,4-dione]
Blockade of iCPDs ([1]; 50 µg/mL, 24 h preincubation, 18 kJ/m^2 ssUV): ~ 50% | inhibition at 10 µg/mL ([1]; Homo sapiens, 10 ug/mL, Figure 3C, read-out: Inhibition of iCPD formation): 30 to 40% | iCPD inhibition across doses ([1]; various doses, Figure 3C / Supplementary Figure S2B): dose-dependent manner | NER pathway gene expression post UV exposure ([2]; 200 µg/ml, 24 h, then 18 kJ/m2 ssUV, various time points, relative to UV-induced upregulation): elevated slightly | Gene expression of Xpa, Xpc and Mitf (NER pathway) ([2]; 24 h incubation, no UV, qPCR): upregulated | Gene expression of Xrcc1 ([2]; 24 h incubation, qPCR): remained unaffected | iCPD inhibition [3]: did not show any effect | Amount of nitrotyrosine (NOS activity marker) [4]: reduced the amount of nitrotyrosine | Reduction in melanin (pigmentation) (melanin in Mel-a cells; 20% or less tyrosine, ~2–3 weeks): > 50% | Reduction in melanin concentration (melanin in Mel-a cells; 100% tyrosine, ~2–3 weeks): ~ 25% | Cell death on longer incubation (melanin in Mel-a cells; 2–3 weeks incubation): 10–15% | Inhibition of delayed CPDs (dCPDs) ([5]; Mel-a, 50 µg/mL, 24–36 h preincubation, 0.5 to 4 h post ssUV, Figure 4C): abrogated the delayed CPDs completely | Inhibition of total CPDs (iCPDs + dCPDs) ([5]; extrapolated from 50% iCPD reduction and complete dCPD blockade, pigmented melanocytes): ~ 80% and 70–80% | Blockade of iCPDs ([6]; 50 µg/mL, 24-h preincubation, 18 kJ/m^2 ssUV): ~50% | iCPD inhibition across doses [6]: blocked iCPD generation in a dose-dependent manner | iCPD inhibition across doses [7]: no significant impact | Gene expression of Xrcc1 [8]: remained unaffected | Gene expression of Xpa, Xpc and Mitf (NER pathway) ([8]; no UV): upregulated

COc1ccc(CCC(C)=O)cc1 [RKME, 4-(4-Methoxyphenyl)-butan-2-one, reference compound]
iCPD inhibition [3]: did not show any effect | iCPD inhibition across doses [6]: did not show any impact | iCPD inhibition across doses ([6]; listed as RMKE): completely abrogated the ability of the molecule to prevent CPD formation | iCPD inhibition across doses [7]: did not show any impact

COc1cc(CC(C(C)=O)C(C)=O)cc(OC)c1OC [TMBPD, 3-(3,4,5-trimethoxy-benzyl)-pentane-2,4-dione]
Inhibition of iCPD formation ([1]; 50 µg/mL, 24 h preincubation, 18 kJ/m^2 ssUV, Figure 3B): inhibited iCPD formation to varying extents

— publication PMC9952391, “The Role of Acetyl Zingerone and Its Derivatives in Inhibiting UV-Induced, Incident, and Delayed Cyclobutane Pyrimidine Dimers” (Antioxidants, 2023)
